ChEMBL document CHEMBL1134045, “Inhibition of BCRP-mediated drug efflux by fumitremorgin-type indolyl diketopiperazines” (Bioorg Med Chem Lett, 2001)

Key:
T6400 = assay: Relative cellular accumulation of mitoxantrone determined with the compound at 2.5 uM and mitoxantrone at 10 uM on T6400 mouse cell line; type: functional
AIK-T8 = assay: Ability to inhibit […] activity at 2.5 uM and 200 ng/ml PSC833 in a mitoxantrone accumulation assay on T8 human cell line; type: ADME, cell-based; details: aik-t8, 2.5 µM

Row | SMILES | Fluorescence (T6400) [%] | Fluorescence (AIK-T8) [%]
1 | CCCCCC1c2[nH]c3ccccc3c2C[C@H]2C(=O)NC(CCC(=O)OC(C)(C)C)C(=O)N12 (stereo partly drawn) | 283 | 592
2 | CCC1c2[nH]c3ccccc3c2C[C@H]2C(=O)NC(CCC(=O)OC(C)(C)C)C(=O)N12 (stereo partly drawn) | 80 | 313
3 | CCCCCC1c2[nH]c3ccccc3c2C[C@H]2C(=O)NC(Cc3c[nH]c4ccccc34)C(=O)N12 (stereo partly drawn) | 242 | 601
4 | CC1NC(=O)[C@@H]2Cc3c([nH]c4ccccc34)C(C(C)C)N2C1=O (stereo partly drawn) | 49 | 156
5 | CC(C)CC1c2[nH]c3ccccc3c2C[C@H]2C(=O)NC(CCCCNC(=O)OC(C)(C)C)C(=O)N12 (stereo partly drawn) | 305 | 649
6 | CCC1c2[nH]c3ccccc3c2C[C@H]2C(=O)NC(CCCCNC(=O)OC(C)(C)C)C(=O)N12 (stereo partly drawn) | 74 | 313
7 | CC(C)C1c2[nH]c3ccccc3c2C[C@H]2C(=O)NC(Cc3c[nH]c4ccccc34)C(=O)N12 (stereo partly drawn) | 96 | 310
8 | CC(C)CC1c2[nH]c3ccccc3c2C[C@H]2C(=O)NC(CCC(=O)OC(C)(C)C)C(=O)N12 (stereo partly drawn) | 348 | 711
9 | CCC1c2[nH]c3ccccc3c2C[C@H]2C(=O)NC(N3CCCC3)C(=O)N12 (stereo partly drawn) | 42 | 119
10 | O=C1NC(N2CCCC2)C(=O)N2C(c3ccccc3)c3[nH]c4ccccc4c3C[C@@H]12 (stereo partly drawn) | 54 | 176
11 | O=C1NC(Cc2ccccc2)C(=O)N2C(C3CCCCC3)c3[nH]c4ccccc4c3C[C@@H]12 (stereo partly drawn) | 91 | 
12 | CCCCCC1c2[nH]c3ccccc3c2C[C@H]2C(=O)NC(Cc3ccccc3)C(=O)N12 (stereo partly drawn) | 199 | 514
13 | CCCCCC1c2[nH]c3ccccc3c2C[C@H]2C(=O)NC(C)C(=O)N12 (stereo partly drawn) | 175 | 436
14 | CCCCCC1c2[nH]c3ccccc3c2C[C@H]2C(=O)NC(COC(C)(C)C)C(=O)N12 (stereo partly drawn) | 275 | 607
15 | CC(C)(C)OC(=O)NCCCCC1NC(=O)[C@@H]2Cc3c([nH]c4ccccc34)C(c3ccccc3)N2C1=O (stereo partly drawn) | 85 | 305
16 | CC(C)C1c2[nH]c3ccccc3c2C[C@H]2C(=O)NC(CCC(=O)OC(C)(C)C)C(=O)N12 (stereo partly drawn) | 149 | 381
17 | CCC1c2[nH]c3ccccc3c2C[C@H]2C(=O)NC(C)C(=O)N12 (stereo partly drawn) | 43 | 114
18 | CCCCCC1c2[nH]c3ccccc3c2C[C@H]2C(=O)NC(CCCCNC(=O)OC(C)(C)C)C(=O)N12 (stereo partly drawn) | 302 | 599
19 | CC(C)(C)OC(=O)NCCCCC1NC(=O)[C@@H]2Cc3c([nH]c4ccccc34)C(C3CCCCC3)N2C1=O (stereo partly drawn) | 278 | 629
20 | CCC1c2[nH]c3ccccc3c2C[C@H]2C(=O)NC(Cc3c[nH]c4ccccc34)C(=O)N12 (stereo partly drawn) | 96 | 354
21 | CC(C)(C)OCC1NC(=O)[C@@H]2Cc3c([nH]c4ccccc34)C(C3CCCCC3)N2C1=O (stereo partly drawn) | 276 | 672

Row | SMILES | Fluorescence (T6400) [%] | Fluorescence (AIK-T8) [%]
22 | CCC1c2[nH]c3ccccc3c2C[C@H]2C(=O)NC(COC(C)(C)C)C(=O)N12 (stereo partly drawn) | 71 | 225
23 | CC(C)(C)OCC1NC(=O)[C@@H]2Cc3c([nH]c4ccccc34)C(c3ccccc3)N2C1=O (stereo partly drawn) | 106 | 339
24 | CC(C)CC1c2[nH]c3ccccc3c2C[C@H]2C(=O)NC(Cc3c[nH]c4ccccc34)C(=O)N12 (stereo partly drawn) | 279 | 535
25 | CC(C)(C)OC(=O)CCC1NC(=O)[C@@H]2Cc3c([nH]c4ccccc34)C(C3CCCCC3)N2C1=O (stereo partly drawn) | 252 | 638
26 | CC(C)C1c2[nH]c3ccccc3c2C[C@H]2C(=O)NC(COC(C)(C)C)C(=O)N12 (stereo partly drawn) | 93 | 334
27 | O=C1NC(Cc2c[nH]c3ccccc23)C(=O)N2C(c3ccccc3)c3[nH]c4ccccc4c3C[C@@H]12 (stereo partly drawn) | 125 | 376
28 | CC(C)C1c2[nH]c3ccccc3c2C[C@H]2C(=O)NC(CCCCNC(=O)OC(C)(C)C)C(=O)N12 (stereo partly drawn) | 133 | 452
29 | CC(C)CC1c2[nH]c3ccccc3c2C[C@H]2C(=O)NC(Cc3ccccc3)C(=O)N12 (stereo partly drawn) | 191 | 431
30 | CC(C)C1c2[nH]c3ccccc3c2C[C@H]2C(=O)NC(Cc3ccccc3)C(=O)N12 (stereo partly drawn) | 104 | 359
31 | CC(C)CC1c2[nH]c3ccccc3c2C[C@H]2C(=O)NC(COC(C)(C)C)C(=O)N12 (stereo partly drawn) | 216 | 522
32 | O=C1NC(Cc2ccccc2)C(=O)N2C(c3ccccc3)c3[nH]c4ccccc4c3C[C@@H]12 (stereo partly drawn) | 112 | 376
33 | CCCCCC1c2[nH]c3ccccc3c2C[C@H]2C(=O)NC(N3CCCC3)C(=O)N12 (stereo partly drawn) | 119 | 370
34 | O=C1NC(N2CCCC2)C(=O)N2C(C3CCCCC3)c3[nH]c4ccccc4c3C[C@@H]12 (stereo partly drawn) | 85 | 313
35 | CCC1c2[nH]c3ccccc3c2C[C@H]2C(=O)NC(Cc3ccccc3)C(=O)N12 (stereo partly drawn) | 63 | 228
36 | CC1NC(=O)[C@@H]2Cc3c([nH]c4ccccc34)C(c3ccccc3)N2C1=O (stereo partly drawn) | 53 | 181
37 | CC(C)C1c2[nH]c3ccccc3c2C[C@H]2C(=O)NC(N3CCCC3)C(=O)N12 (stereo partly drawn) | 45 | 136
38 | O=C1NC(Cc2c[nH]c3ccccc23)C(=O)N2C(C3CCCCC3)c3[nH]c4ccccc4c3C[C@@H]12 (stereo partly drawn) | 158 | 410
39 | CC(C)(C)OC(=O)CCC1NC(=O)[C@@H]2Cc3c([nH]c4ccccc34)C(c3ccccc3)N2C1=O (stereo partly drawn) | 100 | 313
40 | CC(C)CC1c2[nH]c3ccccc3c2C[C@H]2C(=O)NC(C)C(=O)N12 (stereo partly drawn) | 80 | 333
41 | CC(C)CC1c2[nH]c3ccccc3c2C[C@H]2C(=O)NC(N3CCCC3)C(=O)N12 (stereo partly drawn) | 56 | 187
42 | CC1NC(=O)[C@@H]2Cc3c([nH]c4ccccc34)C(C3CCCCC3)N2C1=O (stereo partly drawn) | 74 | 268
